Assay results from patent publication US10828372B2, “Compositions and methods for the inhibition of fibrosis” (WISCONSIN ALUMNI RESEARCH FOUNDATION, priority 2017, dated 2020).
Where two headings read alike, the source gives them in different places. Where no end group is shown, it is not given here.

How the values were obtained:
human plasma FN = test: Isothermal Titration calorimetry (ITC) of peptide binding to fibronectin; settings: pH 7.4 PBS, 25° C., triplicate
Protocol: Isothermal Titration calorimetry (ITC): ITC experiments were performed using a VP-ITC microcalorimeter (MicroCal, LLC) with a cell volume of 2.2 mL. In a typical experiment, the cell was filled with 1.4 mL of 2 μM human plasma FN and the syringe was filled with 1 mL of 28 μM FUD or PEG-FUD peptides. The temperature was set to 25° C. The titration experiment was performed in 39 injections (1×1, 4×4, and 34×8 μL) delivered in 120 sec intervals. Prior to injection, both FN and the peptides were dialyzed in separate dialysis bags overnight into the same PBS buffer (pH 7.4) solution. Routine analysis involved discarding of the first data point and subtraction of peptide into PBS buffer control run. Data were fit using one set of sites model Lavenberg-Marquardt nonlinear regression in Origin 7.0.
The binding of 10 kDa, 20 kDa, and 40 kDa PEG-FUD to FN was studied using Isothermal Titration calorimetry (ITC). This technique was used to determine the thermodynamic parameters as well as the binding constant (Kd) of the interaction. The peptide was injected into a human plasma FN solution in PBS at pH 7.4 and 25° C. in triplicate runs. […] A Kd of 6 (±3) nM was detected for FUD:FN. […] Similar entropy change of −65 (±3) cal/mol, −74 (±7) cal/mol, −66 (±7) cal/mol, and −73 (±2) and enthalpy change of −31 (±1) kcal/mol, −34 (±2) kcal/mol, −30 (±1) kcal/mol, and −32.5 (±0.5) kcal/mol were detected for the interaction of FUD and 10 kDa, 20 kDa, and 40 kDa PEG-FUD with FN, respectively. […] This observation is contrary to the expectation of PEG attachment diminishing a drug's affinity for its binding partner and presents an unexpected but desired feature of the PEG-FUD peptide.

breast cancer = test: Murine models of breast cancer; settings: mouse, in vivo
[1] = system: AlexaFluor 488-plasma fibronectin (A488-FN); test: Microtiter exogenous plasma fibronectin matrix assembly assay (AH1F fibroblasts); type: cell-based, human; settings: for inhibition of fibronectin fibrillogenesis: concentrations up to 20 μM
Chain of AlexaFluor 488-plasma fibronectin (A488-FN) (P02751 32-608 limits assumed): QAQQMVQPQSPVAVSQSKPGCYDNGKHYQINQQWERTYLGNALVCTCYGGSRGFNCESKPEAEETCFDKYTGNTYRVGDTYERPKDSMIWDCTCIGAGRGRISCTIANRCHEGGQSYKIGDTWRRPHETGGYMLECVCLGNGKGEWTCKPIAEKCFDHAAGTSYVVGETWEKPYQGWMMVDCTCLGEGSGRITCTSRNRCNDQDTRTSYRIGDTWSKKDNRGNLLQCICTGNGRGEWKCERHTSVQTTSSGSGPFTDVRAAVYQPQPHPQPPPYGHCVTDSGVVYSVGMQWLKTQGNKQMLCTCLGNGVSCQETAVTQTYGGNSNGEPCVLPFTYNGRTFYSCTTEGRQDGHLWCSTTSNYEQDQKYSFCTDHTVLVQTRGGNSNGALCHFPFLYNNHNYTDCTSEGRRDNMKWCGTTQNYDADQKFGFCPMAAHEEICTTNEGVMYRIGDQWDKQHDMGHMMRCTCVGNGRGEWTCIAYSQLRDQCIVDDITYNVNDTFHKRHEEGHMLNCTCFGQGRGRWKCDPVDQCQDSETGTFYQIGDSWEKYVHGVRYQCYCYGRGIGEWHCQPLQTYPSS
Protocol: Microtiter fibronectin matrix assembly assays: Exogenous plasma fibronectin matrix assembly assay: Binding and incorporation of AlexaFluor® 488-plasma fibronectin (A488-FN) to fibroblast monolayers (human foreskin fibroblasts, AH1F cells was carried out using methods known in the art. Briefly, fibroblasts (60000 per well) were allowed to adhere and spread for 2 hours in microtiter plates in 2% fetal calf serum (FCS)-containing DMEM. Peptides or modulators to be tested were added followed by 28 nM A488-FN. Cell monolayers with or without peptides and A488FN were incubated overnight at 37° C. with 5% CO2. Cell monolayers in microwells were washed with PBS or HBSS containing Ca^2+, Mg^2+. Fluorescence in 96-well plates was read using a microplate reader using bottom-readout capabilities at 485 nm excitation and 525 nm emission with 20 nm bandwidths. To estimate cell viability per well after the washes and measurement of fluorescence, an equal volume of luminescence reagent (Cell Titer-Glo®) was added followed by quantification of luminescence. Fluorescence of wells to which A488FN had not been added, i.e. intrinsic fluorescence of the cell monolayer was subtracted from fluorescence values of wells containing ligand. Data is presented respectively for fibronectin fibrillogenesis or cell viability as percent of fluorescence or luminescence values for wells with no peptides. Microplate microscopy was used to ascertain that fluorescence measurements correspond to fibrillary fibronectin.
To determine whether PEG-FUD retained its ability to inhibit fibronectin fibrillogenesis, PEG-FUD and FUD were compared in cell-based fibronectin matrix assembly assays. The ability of PEG-FUD to inhibit the incorporation of exogenous fibronectin derived from plasma and also of fibronectin endogenously produced by the cultured cells was measured, since fibrosis is likely to contain fibronectin from both sources. Shown in FIG. 12 is the level of fibrils formed from exogenously added A488-FN fibrils in the presence of increasing amounts FUD or PEG-FUD. FIGS. 13 and 14 show endogenous EDA+-fibronectin fibrillogenesis in human fibroblast and human proximal tubular epithelial cells, respectively. In all fluorescence panels, it is evident that PEG-FUD is as efficient as FUD at inhibiting fibronectin assembly dose-dependently with an IC50 of approximately 30 nM. As previously reported, cell viability is negligibly affected by FUD, and PEG-FUD behaves almost identically. There was an approximately 20% decrease in fibroblast viability at the highest concentration of FUD tested (500 nM) with PEG-FUD retaining fibroblast viability almost at 100%. […] Human proximal tubular epithelial cell viability was retained at approximately 100% with treatment by both FUD and PEG-FUD.
Having established the suitability of PEG-FUD as inhibitor of FN fibrillogenesis, a mutated form of FUD, mFUD, was tested as a control peptide. mFUD was PEGylated as described above and the conjugate tested in the exogenous A488-FN binding assay as described for FIG. 1A. […] A maximum concentration of 20 μM was tested because it approximates the concentration used in vivo, both in this study and in the liver fibrosis study.

[2] = system: bleomycin-induced pulmonary fibrosis; test: Bleomycin-induced pulmonary fibrosis model: hydroxyproline and survival; type: in vivo, mouse
Protocol: All efforts were made to minimize suffering. The Bleomycin model is a rodent model representing a human equivalent of pulmonary fibrosis with the fibrotic response peaking between 14 and 21 days post-bleomycin installation. To initiate bleomycin injury, mice were anesthetized with ketamine (100 mg/kg) and xylazine (15 mg/kg) prior to delivering a single intratracheal dose of bleomycin (1 U/kg, Teva Pharmaceutical Industries, Ltd) reconstituted in 0.9% Normal Saline (NS) or NS alone as control.
End-points for analysis: On day 14, mice were euthanized and lungs homogenized for hydroxyproline and western blot. Additionally, mouse survival by day 14 was compared between bleomycin PEG-FUD- and bleomycin PEG-mFUD-treated groups using Log-Rank test.
Hydroxyproline assay: Hydroxyproline assay was performed by Dounce homogenizing right lungs in deionized water, hydrolyzing in 6 N HCl for three hours at 120° C., drying for 45 min at 65° C., incubating in citrate-acetate buffer and chloramine-T for 20 min at room temperature, followed by Ehrlich's reagent for 15 min at 65° C. Subsequently, the samples were cooled to room temperature and the absorbance measured at 550 nm. […] Hydroxyproline results were analyzed using Students t-test with Bonferroni post-hoc test, comparing bleomycin- and PEG-FUD-treated mice to those treated with bleomycin and PEG-mFUD.

[3] = exogenous A488-FN, doses up to 20 μM, read-out: IC50 of fibrillogenesis inhibition
[4] = exogenous A488-plasma fibronectin, human fibroblasts, doses up to 500 nM, read-out: IC50 of fibronectin assembly inhibition

Chain of human plasma FN (P02751 32-608 limits assumed): as above

Substance | Kd (human plasma FN) [nM] | effect on tumor volume (breast cancer) | inhibition of assembly of plasma fibronectin by fibroblasts ([1]; doses up to 500 nM) [%] | inhibition of fibronectin fibrillogenesis ([1]; exogenous A488-FN) [%] | IC50 [1, 3] [nM] | IC50 [1, 4] [nM] | survival to the end of the 14-day trial ([2]; bleomycin-treated mice, s.c. 12.5 mg/kg/day day 3-13) [%] | collagen accumulation (hydroxyproline assay, right lung) ([2]; day 14 post-bleomycin, s.c. 12.5 mg/kg/day day 3-13, vs PEG-mFUD)
FUD: 49 amino acid FUD peptide, SEQ ID NO: 1, recombinantly expressed, His-tag removed; inhibitor of fibronectin fibrillogenesis (KDQSPLAGESGETEYITEVYGNQQNPVDIDKKLPNETGFSGNMVETEDT; human) [reference compound] | 6 | inhibit tumor volume | 70 | 60 | 25 to 30 | ~30 |  | 
PEG-FUD: PEGylated FUD prepared as in Example 1, PEG size not stated; approximately 27 kDa by mass spectrometry, likely the 20 kDa conjugate (KDQSPLAGESGETEYITEVYGNQQNPVDIDKKLPNETGFSGNMVETEDT; not fully specified (N-terminus); also: PEG size not given here) | ~10 | inhibit tumor volume | 70 | 60 | 25 to 30 | ~30 | 100 | significant reduction of collagen accumulation
